In paper PMC3853740, “Chlorinated Didemnins from the Tunicate Trididemnum solidum” (Marine Drugs, 2013):
Read-outs that look alike come from different tables or passages of the source. Blank lines part the entries; values can stand above or below the molecule they belong to. *1 amine or outer side, *2 acyl side, *3 side chain or, on linkers, in order; H or OH if unused. Where a SMILES comes first, the peptide text is derived from it. Bridges are numbered along the chain shown (N, C = ends). [ ]: non-standard residue; d: D form. X1 = CC[C@H](C)[C@@H](N[*:1])[C@@H](O)CC(=O)O[C@H](C(=O)[C@H](C)C(=O)[*:2])C(C)C; X2 = CC(C(=O)C(OC(=O)CC(O)C(N[*:1])C(C)C)C(C)C)C(=O)[*:2]; X3 = COc1ccc(CC(C(=O)[*:2])N(C)[*:1])cc1Cl; NMeY = CN[C@@H](Cc1ccc(O)cc1)C(=O)O; dNMeL = CN[C@H](CC(C)C)C(=O)O; NMeL = CN[CH](CC(C)C)C(=O)O

Legend:
[1] = tested on: nuclear factor-kappa B (NF-κB); assay: Inhibition of NF-κB mediated transcription, reporter gene assay in PMA induced SW1353 chondrocytes; format: cell-based; details: Homo sapiens, SW1353 cells
Description: (§1) The isolated compounds 1–4 were tested in a series of in vitro cell-based assays for their effects on selected targets involved in the process of inflammation and cancer. Inflammation and oxidative stress are known to be linked to the development of many disorders such as cancer, organ damage, and neurodegenerative conditions. The NF-κB family of transcription factors plays a key role in inflammation, cell cycle regulation, apoptosis, and oncogenesis by controlling gene network expression. The activation of NF-κB involves many cellular processes leading to inflammation and development of cancer. In the assay for NF-κB activity, a luciferase construct with binding sites for specificity protein (SP-1) was used as a control because this transcription factor is relatively unresponsive to inflammatory mediators such as phorbol myristate acetate (PMA). Inducible nitric oxide synthase (iNOS) plays a key role in regulation of blood pressure, the immune system, infection, and inflammation. Overproduction of nitric oxide (NO) by iNOS has been implicated in various pathological processes such as septic shock, inflammation, rheumatoid arthritis, cancer, and tissue damage. The increase in NO response caused mainly by endotoxins and proinflammatory mediators such as lipopolysaccharide (LPS) can be reduced by anti-inflammatory agents acting as iNOS inhibitors. The isolated metabolites were also evaluated for their cytotoxicity towards four human solid tumor cell lines (SK-MEL: melanoma; KB: epidermal carcinoma; BT549: breast carcinoma and SK-OV-3: ovarian carcinoma) and non-cancer kidney cells (Vero: monkey kidney fibroblasts).
(§2) Similar to the effect of doxorubicin, the compounds (1–3) were less toxic towards noncancerous cells (Vero cells) which were included for comparison. The strong anticancer activity can be partly explained due to a strong inhibition of NF-κB mediated transcription that may cause enhanced apoptosis and cell death.
(§3) Inhibition of NF-κB mediated transcription was determined in SW1353 cells by a reporter gene assay as described by Ma et al.. Inhibition of iNOS activity was determined in RAW264.7 cells as described earlier. In vitro cytotoxicity was determined against a panel of four solid tumor cell lines and compared with noncancerous kidney cells (Vero). Parthenolide and doxorubicin were used as positive controls for anti-inflammatory and cytotoxic activity, respectively.

[2] = target: T1, inducible nitric oxide synthase (iNOS) (Mus musculus, UniProt P29477); assay: Inhibition of iNOS activity in LPS induced macrophages (RAW264.7 cells); format: cell-based
T1 construct: endogenous in cells; host or cells: RAW264.7 macrophages, LPS induced
T1 sequence (P29477 1-1144): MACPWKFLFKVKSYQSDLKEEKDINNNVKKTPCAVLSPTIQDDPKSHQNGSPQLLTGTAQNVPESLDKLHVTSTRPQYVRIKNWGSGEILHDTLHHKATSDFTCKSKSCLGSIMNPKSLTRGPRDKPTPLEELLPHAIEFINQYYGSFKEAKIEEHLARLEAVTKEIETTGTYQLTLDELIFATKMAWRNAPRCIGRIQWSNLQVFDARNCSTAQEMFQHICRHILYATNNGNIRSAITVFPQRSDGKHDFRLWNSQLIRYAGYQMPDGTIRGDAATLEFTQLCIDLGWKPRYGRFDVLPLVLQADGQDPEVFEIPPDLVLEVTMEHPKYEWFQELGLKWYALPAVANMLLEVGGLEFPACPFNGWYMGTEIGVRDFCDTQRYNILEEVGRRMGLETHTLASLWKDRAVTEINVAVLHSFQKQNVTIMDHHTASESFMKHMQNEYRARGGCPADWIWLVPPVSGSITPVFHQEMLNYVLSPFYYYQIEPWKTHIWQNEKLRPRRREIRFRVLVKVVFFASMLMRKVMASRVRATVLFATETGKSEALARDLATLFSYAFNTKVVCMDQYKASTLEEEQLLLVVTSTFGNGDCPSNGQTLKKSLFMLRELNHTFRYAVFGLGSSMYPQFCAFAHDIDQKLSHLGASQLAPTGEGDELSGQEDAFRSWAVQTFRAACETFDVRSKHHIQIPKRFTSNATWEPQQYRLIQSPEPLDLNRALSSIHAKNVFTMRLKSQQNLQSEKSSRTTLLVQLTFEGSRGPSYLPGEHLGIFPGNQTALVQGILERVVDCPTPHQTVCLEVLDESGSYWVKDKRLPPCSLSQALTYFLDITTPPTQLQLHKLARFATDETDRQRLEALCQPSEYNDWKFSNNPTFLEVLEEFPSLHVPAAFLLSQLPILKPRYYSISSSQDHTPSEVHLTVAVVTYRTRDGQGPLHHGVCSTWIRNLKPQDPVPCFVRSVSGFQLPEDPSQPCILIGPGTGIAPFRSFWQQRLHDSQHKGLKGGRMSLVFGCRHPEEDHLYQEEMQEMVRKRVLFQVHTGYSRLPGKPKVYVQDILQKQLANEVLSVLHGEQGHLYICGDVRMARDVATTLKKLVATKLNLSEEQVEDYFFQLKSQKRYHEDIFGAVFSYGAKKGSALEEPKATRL
Description: as §1, §2, §3

VERO = assay: In vitro cytotoxicity, Vero non-cancer kidney fibroblasts; format: cell-based, monkey; details: Primates, read-out: Anti-cell proliferative activity IC50, VERO
Description: as §1, §3

SK-OV-3 = assay: In vitro cytotoxicity, SK-OV-3 ovarian carcinoma; format: cell-based; details: Homo sapiens
Description: as §1, §3

KB = assay: In vitro cytotoxicity, KB epidermal carcinoma; format: cell-based; details: Homo sapiens, read-out: Anti-cell proliferative activity IC50, KB
Description: as §1, §3

SK-MEL = assay: In vitro cytotoxicity, SK-MEL melanoma; format: cell-based; details: Homo sapiens, read-out: Anti-cell proliferative activity IC50, SK-MEL
Description: as §1, §3

BT-549 = assay: In vitro cytotoxicity, BT-549 breast carcinoma; format: cell-based; details: Homo sapiens
Description: as §1, §3

[3] = RAW264.7 cells, LPS induced, read-out: iNOS inhibition IC50
[4] = SK-OV-3, read-out: Anti-cell proliferative activity IC50, SK-OV-3
[5] = BT-549, read-out: Anti-cell proliferative activity IC50, BT-549

Structure (SMILES): CCC(C)C1NC(=O)C(NC(=O)C(CC(C)C)NC)C(C)OC(=O)C(Cc2ccc(OC)c(Cl)c2)N(C)C(=O)C2CCCN2C(=O)C(CC(C)C)NC(=O)C(C)C(=O)C(C(C)C)OC(=O)CC1O (centres unmarked) [Compound 1, N,O-diMe-o-chlorotyrosine derivative of didemnin A]
IC50 [1]: 260 nM | IC50 [2, 3]: 400 nM | IC50 (VERO): 4.8 µM | IC50 (SK-OV-3; [4]): 260 nM | IC50 (KB): 260 nM | IC50 (SK-MEL): 120 nM | IC50 (BT-549; [5]): 160 nM

Structure (SMILES): CNC(CC(C)C)C(=O)NC1C(=O)NC(C(C)C)C(O)CC(=O)OC(C(C)C)C(=O)C(C)C(=O)NC(CC(C)C)C(=O)N2CCCC2C(=O)N(C)C(Cc2ccc(OC)c(Cl)c2)C(=O)OC1C (centres unmarked) [Compound 2, nor-N,O-diMe-o-chlorotyrosine derivative of didemnin A] (H-[NMeL]T[X2]LP[X3]; ester 2-C; configuration not given here)
IC50 [1]: 620 nM | IC50 [2, 3]: 420 nM | IC50 (VERO): 2.08 µM | IC50 (SK-OV-3; [4]): 380 nM | IC50 (KB): 420 nM | IC50 (SK-MEL): 60 nM | IC50 (BT-549; [5]): 160 nM

Structure (SMILES): CC[C@H](C)[C@H]1NC(=O)[C@@H](NC(=O)[C@@H](CC(C)C)NC)[C@@H](C)OC(=O)[C@H](Cc2ccc(OC)cc2)N(C)C(=O)[C@@H]2CCCN2C(=O)[C@H](CC(C)C)NC(=O)[C@@H](C)C(=O)[C@H](C(C)C)OC(=O)C[C@@H]1O [Compound 3, didemnin A] (H-[dNMeL]T[X1]LP[NMeY](Me); ester 2-C)
IC50 [1]: 190 nM | IC50 [2]: 190 nM | IC50 (VERO): 4.78 µM | IC50 (SK-OV-3; [4]): 160 nM | IC50 (KB): 160 nM | IC50 (SK-MEL): 55 nM | IC50 (BT-549; [5]): 70 nM

Structure (SMILES): CC[C@H](C)[C@H]1NC(=O)[C@@H](NC(=O)[C@@H](CC(C)C)N(C)C(=O)[C@@H]2CCCN2C(=O)C(C)O)[C@@H](C)OC(=O)[C@H](Cc2ccc(OC)cc2)N(C)C(=O)[C@@H]2CCCN2C(=O)[C@H](CC(C)C)NC(=O)[C@@H](C)C(=O)[C@H](C(C)C)OC(=O)C[C@@H]1O (some centres unmarked) [Compound 4, didemnin B]
IC50 [1]: 30 nM | IC50 [2]: 2 nM | IC50 (VERO): 0.15 µM | IC50 (SK-OV-3; [4]): 100 nM | IC50 (KB): 90 nM | IC50 (SK-MEL): 22 nM | IC50 (BT-549; [5]): 20 nM

Structure (SMILES): COc1cccc2c1C(=O)c1c(O)c3c(c(O)c1C2=O)C[C@@](O)(C(=O)CO)C[C@@H]3O[C@H]1C[C@H](N)[C@H](O)[C@H](C)O1 [Doxorubicin, reference compound]
IC50 (VERO; noncancerous monkey kidney fibroblasts): 14 µM | IC50 (SK-OV-3; SK-OV-3, ovarian carcinoma, read-out: Anti-cell proliferative activity IC50, SK-OV-3): 1660 nM | IC50 (KB; epidermal carcinoma): 1660 nM | IC50 (SK-MEL; melanoma): 1100 nM | IC50 (BT-549; BT-549, breast carcinoma, read-out: Anti-cell proliferative activity IC50, BT-549): 1010 nM

IC50 [1]: 2800 nM | IC50 [2, 3]: 2800 nM
Structure (SMILES): C=C1C(=O)O[C@H]2[C@H]1CC/C(C)=C/CC[C@@]1(C)O[C@@H]21 [Parthenolide, reference compound]
